Legend:
[1] = molecular target: HEK293 cells expressing NR1/NR2B (Homo sapiens (Human), UniProt Q05586+Q13224); experiment: NR2B NAM Assay (FDSS Ca2+ influx cell assay); assay type: cell-based; conditions: NR2B NAM assay, class of inhibitory concentration; read-out: Activity Category
Method in brief: (§1)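 Tetracycline-induced HEK293 NR1/NR2B cells (with ARL-15896), fluo-8 loaded, pre-incubated 10 min with compound (0.001–30 µM, 0.1% DMSO) before stimulation with 3 µM glutamate, 3 µM glycine, 1 mM Ca2+ in Ca/Mg-free HBSS-HEPES. Ca2+ influx recorded 3 min on FDSS; end/baseline fluorescence ratio expressed as inhibition relative to MK801.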

[2] = molecular target: HEK293 cells expressing NR1/NR2B (Homo sapiens (Human), UniProt Q13224); experiment: NR2B NAM Assay (FDSS Ca2+ influx cell assay); assay type: cell-based; conditions: Ca2+ influx inhibition relative to MK801; 3 μM glutamate, 3 μM glycine, 1 mM Ca2+; read-out: NR2B NAM IC50
Method in brief: as §1

HEK293 cells expressing NR1/NR2B (Homo sapiens (Human), UniProt Q05586+Q13224), sequence (Q13224 27-1484, other chains not shown): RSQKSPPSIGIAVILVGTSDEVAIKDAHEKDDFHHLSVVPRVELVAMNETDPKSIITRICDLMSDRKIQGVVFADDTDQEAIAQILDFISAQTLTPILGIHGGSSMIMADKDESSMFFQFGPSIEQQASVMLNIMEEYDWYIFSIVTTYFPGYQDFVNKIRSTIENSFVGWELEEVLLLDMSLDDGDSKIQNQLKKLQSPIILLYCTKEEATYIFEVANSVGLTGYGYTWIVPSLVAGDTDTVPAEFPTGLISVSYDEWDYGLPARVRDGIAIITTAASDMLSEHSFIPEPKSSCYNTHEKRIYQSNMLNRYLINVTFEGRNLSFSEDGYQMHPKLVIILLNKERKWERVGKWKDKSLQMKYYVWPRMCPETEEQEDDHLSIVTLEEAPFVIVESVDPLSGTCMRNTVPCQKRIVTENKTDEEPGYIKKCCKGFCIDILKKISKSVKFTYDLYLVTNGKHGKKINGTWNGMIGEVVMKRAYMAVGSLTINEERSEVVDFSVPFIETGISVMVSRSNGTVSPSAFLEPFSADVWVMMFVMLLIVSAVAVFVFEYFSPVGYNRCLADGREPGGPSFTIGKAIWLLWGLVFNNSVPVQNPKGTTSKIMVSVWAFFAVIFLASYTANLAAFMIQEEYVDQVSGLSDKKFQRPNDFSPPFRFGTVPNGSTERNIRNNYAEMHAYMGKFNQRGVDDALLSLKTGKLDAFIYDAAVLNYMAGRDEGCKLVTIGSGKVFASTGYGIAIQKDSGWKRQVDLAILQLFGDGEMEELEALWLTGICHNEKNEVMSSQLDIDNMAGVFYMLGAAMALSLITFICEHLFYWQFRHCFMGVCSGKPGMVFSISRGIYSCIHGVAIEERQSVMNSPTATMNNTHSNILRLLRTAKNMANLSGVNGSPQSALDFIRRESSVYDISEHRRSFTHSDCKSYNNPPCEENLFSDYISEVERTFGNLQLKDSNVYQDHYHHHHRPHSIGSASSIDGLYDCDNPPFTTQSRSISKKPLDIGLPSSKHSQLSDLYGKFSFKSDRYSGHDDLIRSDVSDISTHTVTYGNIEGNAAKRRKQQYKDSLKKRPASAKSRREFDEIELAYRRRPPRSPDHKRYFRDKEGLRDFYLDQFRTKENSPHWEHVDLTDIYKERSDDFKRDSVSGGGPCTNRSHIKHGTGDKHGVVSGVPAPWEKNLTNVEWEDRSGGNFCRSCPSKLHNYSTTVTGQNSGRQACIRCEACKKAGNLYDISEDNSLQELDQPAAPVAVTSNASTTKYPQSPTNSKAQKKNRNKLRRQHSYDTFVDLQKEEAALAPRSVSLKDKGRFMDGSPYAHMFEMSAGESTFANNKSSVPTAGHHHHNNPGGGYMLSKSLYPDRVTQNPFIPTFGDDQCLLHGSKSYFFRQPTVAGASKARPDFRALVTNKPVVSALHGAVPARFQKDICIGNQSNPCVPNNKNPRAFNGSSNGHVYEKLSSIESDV
HEK293 cells expressing NR1/NR2B (Homo sapiens (Human), UniProt Q13224), sequence (Q13224 27-1484, other chains not shown): as above

| IC50 [1] [nM] | IC50 [2] [nM] | Compound |
| --- | --- | --- |
| 1000 to 10000 | 2920 | Oc1ccc(C(O)CN2C[C@H]3C[C@@H](Oc4cc(F)cc(F)c4)C[C@H]3C2)nc1 (stereo partly drawn) |
| < 100 | 57.3 | COc1ccc(O[C@@H]2C[C@@H]3CN(CC(=O)c4ccc(O)cc4)C[C@@H]3C2)cc1 |
| 100 to 1000 | 250 | COc1ccc(O[C@@H]2C[C@@H]3CN(CC(=O)c4ccc(O)c(F)c4)C[C@@H]3C2)cc1 |
| < 100 | 83.9 | COc1ccc(O[C@@H]2C[C@@H]3CN(CC(O)c4ccc(O)c(F)c4)C[C@@H]3C2)cc1 (stereo partly drawn) |
| < 100 | 53.2 | O=C(CN1C[C@H]2C[C@@H](Oc3ccc(F)cc3)C[C@H]2C1)c1ccc(O)c(F)c1 |
| 1000 to 10000 | 4890 | OC(CN1C[C@H]2C[C@H](Oc3ccc(F)cc3)C[C@H]2C1)c1cn[nH]c1 (stereo partly drawn) [drawing 256] |
